According to US20250276996A1, “CATIONICALLY-ENFRAMED HIGH DENSITY AROMATIC PEPTIDES” (Research Foundation of the City University of New York, priority 2022, published 2025):
Entries after “also recorded” stand apart in the source; their conditions may differ. Non-standard residues stand in square brackets, D forms with d. No end group written: not given here.

Legend:
[1] = system: MDBK cells; experiment: Cell survival in serum-free media (AlamarBlue); type: cell-based, bovine; conditions: 1 μM, 5 days serum starvation
Method: Serum starvation experiments: Biotin-HDAP2's ability to improve cell viability and function following serum starvation was assessed. For all experiments, MDBK cells were seeded in 35 mm cell culture dishes (5×10^4 cells) in DMEM medium with 10% FBS (Fetal Bovine Serum) for 24 hrs and then incubated in serum-free medium with or without biotin-HDAP2 (1 μM) for 5 days to induce cell death. For quantitative measurements, wells were washed to remove dead cells, and then stained with AlamarBlue for 60 min. Quantitative analysis of dye conversion was measured using a fluorescent plate reader (550 ex/580 em) and cell viability was expressed as folds change (increase or decrease) over scrum-starved untreated cells.
Effects of peptides on cell survival in serum-free media: Cell survival in serum starvation conditions was studied in the presence and absence of biotin-HDAP2 using MDBK cells. Cells were plated at a density of 1-2×10^5 cells/well in 96 well plates in DMEM/10% FBS media. The following day, cells were washed and the medium replaced with DMEM serum-free media in the presence or absence of different concentrations of biotin-HDAP2 and incubated for 5 days. Cell viability was assessed using the Resaruzin (Alamar blue) indicator dye. Quantitative analysis of dye conversion was measured using a fluorescent plate reader (ex/em=550/580 nm) and viability was expressed as fold increase over of untreated cells.

[2] = system: antimycin-induced scratching; experiment: Topical antimycin-induced scratching; type: in vivo, C57BL/6J mice; conditions: 100 μM topical with 200 μM antimycin
Method: However, antimycin-induced scratching in mice was […] by biotin-free HDAP2. Dermal administration of antimycin, a mitochondrial Complex III irreversible inhibitor, is known to induce ROS formation and oxidative stress in C fibers of sensory neurons, resulting in severe scratching in mice. Biotin-HDAP2 and biotin-free HDAP2 were tested to see if either can inhibit topical antimycin-induced itching in 12 months old C57BL/6J mice. […] Specifically, 200 μM of topical antimycin in methanol induced itching, which was monitored for 60 min. […] Error bars represent SEM (n=3) **P<0.001. Topical administration of 100 μM of biotin-free HDAP2 with antimycin increased scratching by 2.5 fold. Error bars represent SEM (n=3) ***P<0.0001.

[3] = system: ARPE-19 cells; experiment: Mitochondrial potential in the presence of CCCP (TMRM); type: cell-based; conditions: 10 μM of CCCP
Method: Effects of peptides on mitochondrial potential in the presence of Carbonyl cyanide m-chlorophenylhydrazone (CCCP): ARPE-19 cells (ATTC-CRL-2302) (5×10^4 cells) were seeded in 35 mm glass dishes in DMEM/F12 medium with 10% FBS for 24 hr. On the day of the experiment, cells were cultured in DMEM/F12 in the presence of different concentrations of biotin-HDAP2 for 60 min (FIG. 17B). Then, cells were incubated with 10 μM CCCP in the presence of 5 nM TMRM, 100 nM Mito View Green, and 10 μg/ml Hoechst 33342 for 15 min at 37° C. Fluorescent images were immediately obtained with a Nikon Eclipse 50i fluorescence microscope (60× objective) using FITC (Mito View Green), Texas Red (TMRM), and DAPI (Hoechst) filters. Images were collected from three independent experiments, using 4-6 random fields for each treatment group, and imaged and analyzed as described for NR.

Row | Compound | AlamarBlue fluorescence / protection during serum starvation [1] | increase of scratching [2] | effect on antimycin-induced scratching ([2]; 60 min) | ΔΨm relative to control cells [3]
1 | [dR]FF[dR] [biotin-free HDAP2] | did not increase AlamarBlue fluorescence; also recorded: does not protect cells during serum starvation | 2.5 fold | potentiated | –
2 | N#CC(C#N)=NNc1cccc(Cl)c1 [CCCP, carbonyl cyanide m-chlorophenylhydrazone, reference compound] | – | – | – | 20%
